Measurements published in US12522582B2 (Gilead Sciences, Inc., priority 2022, dated 2026).

Legend:
[1] = system: human cryopreserved hepatocytes; test: Stability Assay in Cryopreserved Hepatocytes (human); format: in vitro ADME; conditions: 1 μM, calculated from half-life using the well-stirred model
Procedure: Test compound was incubated at 1 μM with either rat or human cryopreserved hepatocytes (BioIVT, Westbury, NY) up to 6 hours at 37° C. in a 24-well plate format (1×10^6 cells/mL per well). At specified time points, samples were transferred to a 96-well plate and quenched with 2 volumes of a solution containing 90% acetonitrile 10% methanol 0.1% formic acid and internal standard. Sample plate was centrifuged at 3200 rpm for 15 min and supernatants transferred to a new plate containing half volume of water. The resulting solution was analyzed by LC-MS/MS. Data (analyte to internal standard peak area ratio) was plotted on a semi-log scale and fitted using an exponential fit. Assuming first order kinetics, the half-life (t1/2) and rate of metabolism were determined. Predicted hepatic clearance was calculated from the half-life using the well-stirred model.

HSV-2 virus (MS strain) [2] = test: HSV-2 Cellomics Assay (immunofluorescence of HSV protein gD in infected ARPE-19 cells)
HSV-2 virus (MS strain) [3] = test: HSV qPCR Assay (HSV replication in ARPE-19 cells)
[4] = MT-4 CC50 Assay (CellTiter Glo); format: cell-based; conditions: human, MT-4 cells, luminescence, read-out: CC50-MT4
Procedure: Compounds were tested in 384-well plates: 18 compounds in duplex. Compounds were diluted in 7 points, 3-fold with DMSO by Bravo. Assay plate, which contains 20 uL medium with compounds, was seeded 2000 MT-4 cells in 20 uL/well by Multi-drop to start the assay. The plate was incubated at 37° C. for 5 days. On 6th day, the CellTiter Glo 40 uL was added in each well. Luminescence was read by Victor II.

[5] = Human alphaherpesvirus 2, ARPE-19, 16 h, read-out: EC50-HSV2-10% Human Serum
[6] = Human alphaherpesvirus 2, ARPE-19, 16 h, read-out: EC50-HSV2-FBS
[7] = Human alphaherpesvirus 2, ARPE-19, read-out: EC50 in HSV qPCR assay
[8] = Human alphaherpesvirus 2, ARPE-19, read-out: EC50-HSV2-qPCR

Structure (SMILES) | Predicted human hepatic clearance [1] [L/h/kg] | EC50 (HSV-2 virus (MS strain) [2]; [5]) [nM] | EC50 (HSV-2 virus (MS strain) [2]; [6]) [nM] | EC50 (HSV-2 virus (MS strain) [3]; [7]) [nM] | EC50 (HSV-2 virus (MS strain) [3]; [8]) [nM] | EC50 (HSV-2 virus (MS strain) [2]; Human alphaherpesvirus 2, ARPE-19, read-out: EC50 in HSV-2 Cellomics assay) [nM] | CC50 at 5 days [4] [µM]
NS(=O)(=O)c1ccc2c(c1)N(C(=O)[C@@H]1Cc3ccc(-c4cccnc4)cc3C1)CC2 [Example 130, (R)-1-(5-(pyridin-3-yl)-2,3-dihydro-1H-indene-2-carbonyl)indoline-6-sulfonamide] | 0.45 | ≥ 10000 | 110 | – | – | – | –
Nc1nc2c(ncn2COCCO)c(=O)[nH]1 [acyclovir, reference compound] | – | – | – | 1250 | – | – | –
NS(=O)(=O)c1ccc2c(c1)N(C(=O)[C@@H]1Cc3ccc(-c4ccncc4)cc3C1)CC2 [Example 131, (R)-1-(5-(pyridin-4-yl)-2,3-dihydro-1H-indene-2-carbonyl)indoline-6-sulfonamide] | 0.57 | ≥ 10000 | 753 | – | – | – | –
NS(=O)(=O)c1cc2c(cc1F)CCN2C(=O)C1Cc2ccc(-c3ccccn3)cc2O1 (stereo not drawn) [Example 116, 5-fluoro-1-(6-(pyridin-2-yl)-2,3-dihydrobenzofuran-2-carbonyl)indoline-6-sulfonamide] | 0.05 | 489 | 42 | – | – | – | –
NS(=O)(=O)c1ccc2c(c1)N(C(=O)C1Cc3ccc(-c4ccccc4F)cc3C1)CC2 (stereo not drawn) [Example 70, 1-(5-(2-fluorophenyl)-2,3-dihydro-1H-indene-2-carbonyl) indoline-6-sulfonamide] | – | ≥ 25000 | 91 | – | 25.8 | – | –
Cc1nc(N(C)C(=O)Cc2ccc(-c3ccccn3)cc2)sc1S(N)(=O)=O [pritelivir, reference compound] | – | – | – | 14 | – | 150 | –
Cc1cccc(C)c1N(CC(=O)Nc1ccc(-c2ncon2)cc1)C(=O)C1CCS(=O)(=O)CC1 [amenamevir, reference compound] | – | – | – | 14 | – | – | –
CC[C@@H]1Cc2ccc(S(N)(=O)=O)cc2N1C(=O)[C@@H]1Cc2ccc(-c3ccccn3)cc2C1 [Example 68, (R)-2-ethyl-1-((R)-5-(pyridin-2-yl)-2,3-dihydro-1H-indene-2-carbonyl)indoline-6-sulfonamide] | – | 233 | 31 | – | – | – | ≥ 10
C[C@@H]1Cc2cc(F)c(S(N)(=O)=O)cc2N1C(=O)[C@@H]1Cc2ccc(-c3cc(F)cc(F)c3F)cc2C1 [Example 62, (R)-5-fluoro-2-methyl-1-((R)-5-(2,3,5-trifluorophenyl)-2,3-dihydro-1H-indene-2-carbonyl)indoline-6-sulfonamide] | – | 318 | 59 | – | – | – | ≥ 10
CC1CN(C(=O)C2Cc3ccc(-c4ccccn4)cc3C2)c2cc(S(N)(=O)=O)ccc21 (stereo not drawn) [Example 106, 3-Methyl-1-[5-(2-pyridyl)indane-2-carbonyl]indoline-6-sulfonamide] | – | – | 81 | – | 10.9 | – | –
C[C@@H]1c2cc(F)c(S(N)(=O)=O)cc2N(C(=O)[C@@H]2Cc3ccc(-c4ccccn4)cc3C2)[C@@H]1C [Example 48, (2R,3R)-5-fluoro-2,3-dimethyl-1-((R)-5-(pyridin-2-yl)-2,3-dihydro-1H-indene-2-carbonyl)indoline-6-sulfonamide] | – | 104 | 16 | – | – | – | ≥ 10
CC1Cc2ccc(S(N)(=O)=O)cc2N1C(=O)C1Cc2ccc(-c3ccccn3)cc2C1 (stereo not drawn) [Example 3] | – | ≥ 25000 | 129 | – | 18.5 | – | –
C[C@@H]1Cc2ccc(S(N)(=O)=O)cc2N1C(=O)C1Cc2cc(-c3ccccn3)ccc2O1 (stereo partly drawn) [Example 57] | – | 381 | 35 | – | – | – | ≥ 10
C[C@@H]1Cc2cc(Br)c(S(N)(=O)=O)cc2N1C(=O)[C@@H]1Cc2ccc(-c3ccccn3)cc2C1 [Example 38, (R)-5-bromo-2-methyl-1-((R)-5-(pyridin-2-yl)-2,3-dihydro-1H-indene-2-carbonyl)indoline-6-sulfonamide] | – | 543 | 19 | – | – | – | ≥ 10
NS(=O)(=O)c1ccc2c(c1)N(C(=O)[C@@H]1Cc3ccc(-c4ccncn4)cc3C1)CC2 [Example 129, (R)-1-(5-(pyrimidin-4-yl)-2,3-dihydro-1H-indene-2-carbonyl)indoline-6-sulfonamide] | 1.05 | 7610 | 231 | – | – | – | –
